The results in this text go back to patent publication US10653737B1, “Synergistic nutritional compositions for pain management” (Celagenex Research (India) Pvt. Ltd., priority 2019, dated 2020).

The test system of test [1] is Swiss albino mice (tail immersion model). Nature of the test: Tail immersion model, analgesic potential in experimental mice. In kind it is in vivo. Particulars: for Tail immersion latency reaction time: water 55° C., cut off 15 second, Mean ± SEM, n=6; for Percentage maximum possible effect: [(Post drug latency-Pre drug latency)/(15-Pre drug latency)]×100. As to the method: Animal Study—Evaluation of analgesic potential of the test substances against tail immersion model in experimental mice.
Male Swiss albino mice weighing between 30-35 g were used. Mice were placed into individual cylindrical mice holders leaving the tail hanging out freely. The animals were allowed to get acclimatized to mice holders for 30 min before testing. The lower 5 cm portion of the tail was marked. This part of the tail was immersed in a cup of freshly filled water at 55° C. The reaction time was recorded using a stop-watch. After each determination the tail was carefully dried. The reaction time was determined before and periodically 0 min, 30 min, 60 min, 90 min, 120 min, 180 min and 240 min after the oral administration of test substance. The cut off time of immersion was 15 second. The percentage maximum possible effect (% MPE) was calculated using the following formula: [(Post drug latency-Pre drug latency)/(15-Pre drug latency)]×100.
The values were expressed in Mean±SEM. The significance of in vivo data was analyzed by One way anova followed by Dunnet test. P<0.05 was considered as statistically significant.

The next test concerns eNOS gene. As to the kind of experiment: eNOS gene expression by semi-quantitative RT-PCR in H9C2 cells. The class given is cell-based, rat. The conditions noted are these: for Regulation in Terms of Folds, eNOS (normalized to β-Actin): control = 1.00. As to the method:
The test substances were evaluated for its gene expression activity in H9C2 (rat cardiomyocytes), the concentration of test substances (G2, G3 and G4,) is 500 μg/ml were taken for gene expression studies. […] [Hunter C. Champion, et al., PNAS, 2005; 102:5:1661-1666.]
eNOS were estimated for the test substance by gene expression method, where the level of expression of eNOS expression on […] Cardiomyocytes (H9C2) was determined with respect to untreated H9C2 cells.
The H9C2 cells treated with test samples were subjected to cell lysis by treating with Tri-extract reagent. Chloroform was added, to isolate the total RNA from the sample and subjected for centrifugation. Out of the three distinct layers observed, upper layer was collected in fresh tube and equal volume of isopropanol was added and incubated at […] for 10 mins. After the incubation followed by centrifugation, appropriate volume of ethanol was added to resuspend the pellet. After incubation and centrifugation, the pellet was air dried and appropriate volume of TAE buffer was added. The isolated total RNA was further used for cDNA synthesis. cDNA was synthesized by priming with oligo-dT primers followed by reverse transcriptase enzyme treatment according to manufacturer's protocol (Thermoscientific). The cDNA thus synthesized was taken up for PCR for the amplification of eNOS and GAPDH (internal control).
The mRNA expression levels of eNOS were determined using semi-quantitative reverse transcriptase-polymerase chain reaction (RT-PCR). 50p of the reaction mixture was subjected to PCR for amplification of eNOS. cDNAs using specifically designed primers procured from Eurofins, India and as an internal control GAPDH/3-Actin (House-keeping genes) was co-amplified with each reaction.
eNOS: 95° C. for 5 min followed by 35 cycles of denaturation at 95° C. for 30 seconds, annealing Temp for 30 seconds and extension at 72° C. for 45 seconds. This was followed by final extension at 72° C. for 10 min.

On to `CCCCCCCCCCCCCCCC(=O)NCCO` [Composition P3A, palmitoylethanolamide], for which the “Tail immersion latency reaction time” value in test [1] (0 Min, oral) was 2.50 s; in test [1] (30 Min after oral administration), 5.17 s; in test [1] (60 Min after oral administration), 5.83 s; in test [1] (90 Min after oral administration) it was 6.50 s; in test [1] (120 Min after oral administration), 7.50 s; in test [1] (180 Min after oral administration) it was 8.33 s. For the same compound, the “Tail immersion latency reaction time” value in test [1] (240 Min after oral administration) is 7.50 s. The “Percentage maximum possible effect” value was found to be 21.33% in test [1] (30 Min); 26.67% in test [1] (60 Min); 32.00% in test [1] (90 Min); 40.00% in test [1] (120 Min); 46.67% in test [1] (180 Min); 40.00% in test [1] (240 Min). Besides, the “Percentage maximum possible effect compared with Pain control group (in words)” value in test [1] (different intervals of time) is recorded as “significant increased”. Moreover, the “Tail immersion latency reaction time compared with Pain control group (in words)” value in test [1] (different time intervals, One way anova, Dunnet test, P<0.05) was “significant increased”. For the same compound, in the test on eNOS gene (at tested doses (500 μg/ml), increase over control), the “eNOS expression over expressed as compared to the control” value is given as 0.25 folds. For the same compound, the “Regulation in Terms of Folds, eNOS (normalized to β-Actin)” value in the test on eNOS gene (test substance 500 μg/ml) is on record as 1.25 fold.
For `CC(C)C[C@H](CN)CC(=O)O` [Pregabalin (LYRICA ®) 75 mg, Pregabalin, reference compound], in test [1] (mouse, in vivo), the “Percentage maximum possible effect compared with Pain control group (in words)” value was “significant increased” and the “Tail immersion latency reaction time compared with Pain control group (in words)” value is “significant increased”. Also, the “Regulation in Terms of Folds, eNOS (normalized to β-Actin)” value in the test on eNOS gene (125 μg/ml) stood at 1.58 fold. Also, the “eNOS gene expression up-regulated over control” value in the test on eNOS gene (standard product (125 μg/ml), increase over control) is 0.58 fold.
